Reference: patent US9708336B2, “Metallo-beta-lactamase inhibitors” (priority 2014, dated 2017)
Read-outs that look alike come from different tables or passages of the source.

Tests used:
NDM-1 = NDM-1 (Klebsiella pneumoniae, UniProt C7C422); assay: biochemical; assay type: biochemical; settings: read-out: NDM-1 IC50
IMP-1 = IMP-1 (Serratia marcescens, UniProt P52699); assay: biochemical; assay type: biochemical; settings: read-out: IMP-1 IC50
VIM-1 = VIM-1 (Pseudomonas aeruginosa (strain ATCC 15692 / DSM 22644 / CIP 104116 / JCM 14847 / LMG 12228 / 1C / PRS 101 / PAO1), UniProt A0A0F7KYQ8); assay: Enzyme activity: determination of IC50, fluorescence assay with CCF2-FA substrate (VIM-1); assay type: biochemical
[1] = tested on: Escherichia coli expressing NDM-1 (CLB30016); assay: Antibiotic potentiation activity: synergistic concentration (MITC95) with imipenem, OD600 growth; assay type: cell-based; settings: for Escherichia coli expressing NDM-1 (CLB 30016) MITC95: concentration giving 95% inhibition of bacterial growth
Method in brief: (§1)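 Spectrophotometric growth readings were taken following 22–24 h at 35 °C. Before that, organisms in 1.1× CAMHB were mixed with imipenem, used at 4 μg/ml in assay, and test compound.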

[2] = tested on: Klebsiella pneumoniae expressing VIM-1 (IHMA599644); assay: as above; assay type: cell-based; settings: for Klebsiella pneumoniae expressing VIM-1 (IHMA 599644) MITC95: concentration giving 95% inhibition of bacterial growth
Method in brief: as §1

[3] = tested on: Serratia marcescens expressing IMP-1 (CL5741); assay: as above; assay type: cell-based; settings: for Serratia marcescens expressing IMP-1 (CL5741) MITC95: concentration giving 95% inhibition of bacterial growth
Method in brief: as §1

[4] = NDM-1 enzyme, CCF2-FA substrate
[5] = IMP-1 enzyme, CCF2-FA substrate
[6] = VIM-1 enzyme, CCF2-FA substrate, read-out: VIM-1 IC50
[7] = (CLB30016, NDM-1), 95% growth inhibition
[8] = Klebsiella pneumoniae IHMA599644 (VIM-1), 95% growth inhibition
[9] = Serratia marcescens CL5741 (IMP-1), 95% growth inhibition
[10] = NDM-1 enzyme, CCF2-FA fluorescence assay
[11] = IMP-1 enzyme, CCF2-FA fluorescence assay
[12] = VIM-1 enzyme, CCF2-FA fluorescence assay, read-out: VIM-1 IC50
[13] = Escherichia coli expressing NDM-1 (CLB30016), 95% growth inhibition
[14] = Klebsiella pneumoniae expressing VIM-1 (IHMA599644), 95% growth inhibition
[15] = Serratia marcescens expressing IMP-1 (CL5741), 95% growth inhibition
[16] = fluorescence assay with CCF2-FA substrate
[17] = fluorescence assay with CCF2-FA substrate, read-out: VIM-1 IC50
[18] = CLB30016 (NDM-1), 95% inhibition of bacterial growth
[19] = IHMA599644 (VIM-1), 95% inhibition of bacterial growth
[20] = CL5741 (IMP-1), 95% inhibition of bacterial growth
[21] = VIM-1 IC50, VIM-1 enzyme, CCF2-FA fluorescence assay
[22] = VIM-1 IC50, fluorescence assay with CCF2-FA substrate

Chain of IMP-1 (P52699 whole entry, looked up): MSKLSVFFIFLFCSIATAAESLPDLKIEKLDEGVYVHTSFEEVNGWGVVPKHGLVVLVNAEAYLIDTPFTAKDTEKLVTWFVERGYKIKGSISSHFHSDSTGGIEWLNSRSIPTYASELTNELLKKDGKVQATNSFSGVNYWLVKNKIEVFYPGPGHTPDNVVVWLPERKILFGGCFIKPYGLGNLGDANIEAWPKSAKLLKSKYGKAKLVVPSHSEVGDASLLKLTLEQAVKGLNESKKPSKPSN
Chain of NDM-1 (C7C422 whole entry, looked up, species assumed): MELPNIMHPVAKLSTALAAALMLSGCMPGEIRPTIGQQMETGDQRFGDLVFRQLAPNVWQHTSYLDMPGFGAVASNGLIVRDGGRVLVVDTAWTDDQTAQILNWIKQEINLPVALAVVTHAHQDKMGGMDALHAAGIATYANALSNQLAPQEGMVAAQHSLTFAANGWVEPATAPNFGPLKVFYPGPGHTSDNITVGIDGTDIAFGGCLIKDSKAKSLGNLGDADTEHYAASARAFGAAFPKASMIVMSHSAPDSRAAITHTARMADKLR

Row | Compound | IC50 (NDM-1; [4]) | IC50 (IMP-1; [5]) | IC50 (VIM-1; [6]) | Escherichia coli MITC95 [1, 7] | Klebsiella pneumoniae MITC95 [2, 8] | Serratia marcescens MITC95 [3, 9] | IC50 (NDM-1; [10]) | IC50 (IMP-1; [11]) | IC50 (VIM-1; [12]) | Escherichia coli MITC95 [1, 13] | Klebsiella pneumoniae MITC95 [2, 14] | Serratia marcescens MITC95 [3, 15] | other results
1 | N=C(N)NCc1ccc(-c2ccc(CC3CCNCC3)c(S(N)(=O)=O)c2-c2nn[nH]n2)cc1 [Example 594, 4′-(guanidinomethyl)-4-(piperidin-4-ylmethyl)-2-(2H-tetrazol-5-yl)biphenyl-3-sulfonamide] | 13.4 nM | 51.7 nM | 5.41 nM | 0.7813 µM | 1.563 µM | 1.563 µM |  |  |  |  |  |  | 
2 | Nc1ccc(-c2ccc(Br)c(S(N)(=O)=O)c2-c2nn[nH]n2)cn1 [Example 264, 3-(6-aminopyridin-3-yl)-6-bromo-2-(2H-tetrazol-5-yl)benzenesulfonamide] |  |  |  |  |  |  | 4.61 nM | 16.9 nM | 4.4 nM | 0.04688 µM | 1.781 µM | 0.3828 µM | 
3 | NS(=O)(=O)c1c(CC2(F)CCNCC2)ccc(-c2ccc(C3CCNCC3)cc2)c1-c1nn[nH]n1 [Example 464, 4-((4-fluoropiperidin-4-yl)methyl)-4′-(piperidin-4-yl)-2-(2H-tetrazol-5-yl)-[1,1′-biphenyl]-3-sulfonamide] |  |  |  |  |  |  | 3.82 nM | 18.7 nM | 1.95 nM | 0.7813 µM | 1.563 µM | 1.563 µM | 
4 | N=C(N)NC1CCC(CCc2ccc(C(F)(F)F)c(S(N)(=O)=O)c2-c2nn[nH]n2)CC1 (stereo not drawn) [Example 524, 3-(2-(4-Guanidinocyclohexyl)ethyl)-2-(2H-tetrazol-5-yl)-6-(trifluoromethyl)benzenesulfonamide] | 24.8 nM | 5.13 nM | 1.05 nM | 12.5 µM | 12.5 µM | 6.25 µM |  |  |  |  |  |  | 
5 | NS(=O)(=O)c1c(C(F)(F)F)ccc(-c2ccc(C3CCN(CC4CCNC4)CC3)cc2)c1-c1nnn[nH]1 (stereo not drawn) [Example 795, 4′-[1-(pyrrolidin-3-ylmethyl)piperidin-4-yl]-2-(1H-tetrazol-5-yl)-4-(trifluoromethyl)biphenyl-3-sulfonamide] |  |  |  |  |  |  |  |  |  |  |  |  | IC50 (NDM-1; [16]): 5.23 nM; IC50 (IMP-1; [16]): 1.1 nM; IC50 (VIM-1; [17]): 6.57 nM; Escherichia coli MITC95 [1, 18]: 1.563 µM; Klebsiella pneumoniae MITC95 [2, 19]: 25 µM; Serratia marcescens MITC95 [3, 20]: 3.125 µM
6 | NS(=O)(=O)c1cccc(-c2ccc(CN[C@H]3COC[C@@H]3O)cc2)c1-c1nnn[nH]1 [Example 365, 4′-({[(3S,4R)-4-hydroxytetrahydrofuran-3-yl]amino}methyl)-2-(1H-tetrazol-5-yl)biphenyl-3-sulfonamide] |  |  |  |  |  |  | 5.37 nM | 52.1 nM | 390 nM | 1.563 µM | 75 µM | 2.344 µM | 
7 | Nc1nc2cccc(-c3ccc(C(F)(F)F)c(S(N)(=O)=O)c3-c3nnn[nH]3)c2[nH]1 [Example 551, 3-(2-amino-3H-benzimidazol-4-yl)-2-(1H-tetrazol-5-yl)-6-(trifluoromethyl)benzenesulfonamide] | 0.142 nM | 3.8 nM | 0.26 nM | 0.3906 µM | 1.563 µM | 0.7813 µM |  |  |  |  |  |  | 
8 | Nc1nc2cccc(-c3cccc(S(N)(=O)=O)c3-c3nn[nH]n3)c2[nH]1 [Example 428, 3-(2-amino-1H-benzo[d]imidazol-7-yl)-2-(2H-tetrazol-5-yl)benzenesulfonamide] |  |  |  |  |  |  | 0.683 nM | 345 nM | 17.3 nM | 0.0625 µM | 1.531 µM | 6.25 µM | 
9 | NC1=NCC(c2ccc(-c3cccc(S(N)(=O)=O)c3-c3nnn[nH]3)cc2)CN1 (stereo not drawn) [Example 511, 4′-(2-Amino-1,4,5,6-tetrahydropyrimidin-5-yl)-2-(1H-tetrazol-5-yl)-[1,1′-biphenyl]-3-sulfonamide] | 4.8 nM | 14.3 nM |  | 3.125 µM | 100 µM | 3.125 µM |  |  |  |  |  |  | IC50 (VIM-1; VIM-1 IC50, VIM-1 enzyme, CCF2-FA substrate): 41.6 nM
10 | NS(=O)(=O)c1nccc(N2CCC(c3nnc4ccccn34)CC2)c1-c1nnn[nH]1 [Example 241, 3-(1H-tetrazol-5-yl)-4-(4-[1,2,4]triazolo[4,3-a]pyridin-3-ylpiperidin-1-yl)pyridine-2-sulfonamide] |  |  |  |  |  |  | 67.7 nM | 335 nM |  | 1.563 µM | >200 µM | 12.5 µM | IC50 (VIM-1; [21]): 774 nM
11 | N=C(NC1CNC1)c1ccc(-c2ccc(C(F)(F)F)c(S(N)(=O)=O)c2-c2nn[nH]n2)cc1 [Example 563, N-(azetidin-3-yl)-3′-sulfamoyl-2′-(2H-tetrazol-5-yl)-4′-(trifluoromethyl)biphenyl-4-carboximidamide] | 53.8 nM | 45.9 nM | 5.02 nM | 3.125 µM | 3.125 µM | 6.25 µM |  |  |  |  |  |  | 
12 | Nc1ccc2cc(-c3cccc(S(N)(=O)=O)c3-c3nnn[nH]3)ccc2n1 [Example 403, 3-(2-amino-6-quinolyl)-2-(1H-tetrazol-5-yl)benzenesulfonamide] |  |  |  |  |  |  | 2.34 nM | 184 nM | 15.4 nM | 0.125 µM | 6.25 µM | 4.688 µM | 
13 | NS(=O)(=O)c1cccc(-c2ccc(CN3CCNC(=O)C3)cc2)c1-c1nnn[nH]1 [Example 386, 4′-[(3-oxopiperazin-1-yl)methyl]-2-(1H-tetrazol-5-yl)biphenyl-3-sulfonamide] |  |  |  |  |  |  | 3.23 nM | 32 nM | 120 nM | 6.25 µM | >200 µM | 1.563 µM | 
14 | NS(=O)(=O)c1cccc(-c2cccc(CO)c2)c1-c1nnn[nH]1 [Example 119, 3′-(hydroxymethyl)-2-(1H-tetrazol-5-yl)-[1,1′-biphenyl]-3-sulfonamide] |  |  |  |  |  |  |  |  |  |  |  |  | IC50 (NDM-1; [16]): 16.2 nM; IC50 (IMP-1; [16]): 548 nM; IC50 (VIM-1; [22]): 261 nM; Escherichia coli expressing NDM-1 (CLB 30016) MITC95 [1]: 1.563 µM; Klebsiella pneumoniae expressing VIM-1 (IHMA 599644) MITC95 [2]: 50 µM; Serratia marcescens expressing IMP-1 (CL5741) MITC95 [3]: 18.75 µM
15 | NS(=O)(=O)c1c(CC2CCNCC2)ccc(-c2ccc(C3CN(CCO)C3)cc2)c1-c1nn[nH]n1 [Example 608, 3-[4-[1-(2-hydroxyethyl)azetidin-3-yl]phenyl]-6-(4-piperidylmethyl)-2-(2H-tetrazol-5-yl)benzenesulfonamide] | 30.4 nM | 127 nM | 45 nM | 6.25 µM | 6.25 µM | 6.25 µM |  |  |  |  |  |  | 
16 | Cc1cccc(S(N)(=O)=O)c1-c1nnn[nH]1 [Example 150, 3-methyl-2-(1H-tetrazol-5-yl)benzenesulfonamide] |  |  |  |  |  |  |  |  |  |  |  |  | IC50 (NDM-1; [16]): 148 nM; IC50 (IMP-1; [16]): 1940 nM; IC50 (VIM-1; [17]): 5650 nM; Escherichia coli expressing NDM-1 (CLB 30016) MITC95 [1]: 0.7813 µM; Klebsiella pneumoniae expressing VIM-1 (IHMA 599644) MITC95 [2]: 200 µM; Serratia marcescens expressing IMP-1 (CL5741) MITC95 [3]: 6.25 µM
17 | NS(=O)(=O)c1c(C(F)(F)F)ccc(-c2ccc(C3CCN(CC4CCCNC4)CC3)cc2)c1-c1nnn[nH]1 (stereo not drawn) [Example 673, 4′-[1-(piperidin-3-ylmethyl)piperidin-4-yl]-2-(1H-tetrazol-5-yl)-4-(trifluoromethyl)biphenyl-3-sulfonamide] | 10.1 nM | 1.35 nM | 9.07 nM | 3.125 µM | 62.5 µM | 3.125 µM |  |  |  |  |  |  | 
18 | NC1CN(C2CCN(c3ccc(C(F)(F)F)c(S(N)(=O)=O)c3-c3nnn[nH]3)CC2)C1 [Example 758, 3-[4-(3-aminoazetidin-1-yl)piperidin-1-yl]-2-(1H-tetrazol-5-yl)-6-(trifluoromethyl) benzenesulfonamide] |  |  |  |  |  |  |  |  |  |  |  |  | IC50 (NDM-1; [16]): 29.6 nM; IC50 (IMP-1; [16]): 45.8 nM; IC50 (VIM-1; [22]): 2.44 nM; Escherichia coli MITC95 [1, 18]: 6.25 µM; Klebsiella pneumoniae MITC95 [2, 19]: 6.25 µM; Serratia marcescens MITC95 [3, 20]: 6.25 µM
19 | Nc1nccc2ccc(-c3cccc(S(N)(=O)=O)c3-c3nnn[nH]3)cc12 [Example 400, 3-(1-aminoisoquinolin-7-yl)-2-(1H-tetrazol-5-yl)benzenesulfonamide] |  |  |  |  |  |  | 1.64 nM | 166 nM |  | 0.25 µM | 6.25 µM | 12.5 µM | IC50 (VIM-1; [21]): 18.4 nM
